In PubChem BioAssay (NCI):
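Compound exposure: 48 hours, 5 concentrations, 96-well plates. The concentration for full growth arrest is given as TGI.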

How the values were obtained:
Test in all cases: NCI-60 cell line screen, 48 h
786-0 renal = system: 786-0 renal
A498 renal = system: A498 renal
A549 NSCLC = system: A549 NSCLC
ACHN renal = system: ACHN renal
CAKI-1 renal = system: CAKI-1 renal
CCRF-CEM leukemia = system: CCRF-CEM leukemia
COLO 205 colon = system: COLO 205 colon
DLD-1 colon = system: DLD-1 colon
DMS 114 small cell lung = system: DMS 114 small cell lung
DMS 273 small cell lung = system: DMS 273 small cell lung
EKVX NSCLC = system: EKVX NSCLC
HCC-2998 colon = system: HCC-2998 colon
HCT-116 colon = system: HCT-116 colon
HCT-15 colon = system: HCT-15 colon
HL-60(TB) leukemia = system: HL-60(TB) leukemia
HOP-18 NSCLC = system: HOP-18 NSCLC
HOP-62 NSCLC = system: HOP-62 NSCLC
HOP-92 NSCLC = system: HOP-92 NSCLC
HT29 colon = system: HT29 colon
IGROV1 ovarian = system: IGROV1 ovarian
K-562 leukemia = system: K-562 leukemia
KM12 colon = system: KM12 colon
KM20L2 colon = system: KM20L2 colon
LOX IMVI melanoma = system: LOX IMVI melanoma
LXFL 529 NSCLC = system: LXFL 529 NSCLC
M14 melanoma = system: M14 melanoma
M19-MEL melanoma = system: M19-MEL melanoma
MALME-3M melanoma = system: MALME-3M melanoma
MOLT-4 leukemia = system: MOLT-4 leukemia
NCI-H226 lung = system: NCI-H226 lung
NCI-H23 lung = system: NCI-H23 lung
NCI-H460 lung = system: NCI-H460 lung
NCI-H522 lung = system: NCI-H522 lung
OVCAR-3 ovarian = system: OVCAR-3 ovarian
OVCAR-4 ovarian = system: OVCAR-4 ovarian
OVCAR-5 ovarian = system: OVCAR-5 ovarian
OVCAR-8 ovarian = system: OVCAR-8 ovarian
RPMI-8226 leukemia = system: RPMI-8226 leukemia
RXF 393 renal = system: RXF 393 renal
RXF-631 renal = system: RXF-631 renal
SF-268 CNS = system: SF-268 CNS
SF-295 CNS = system: SF-295 CNS
SF-539 CNS = system: SF-539 CNS
SK-MEL-2 melanoma = system: SK-MEL-2 melanoma
SK-MEL-28 melanoma = system: SK-MEL-28 melanoma
SK-MEL-5 melanoma = system: SK-MEL-5 melanoma
SK-OV-3 ovarian = system: SK-OV-3 ovarian
SN12C renal = system: SN12C renal
SNB-19 CNS = system: SNB-19 CNS
SNB-75 CNS = system: SNB-75 CNS
SNB-78 CNS = system: SNB-78 CNS
SR leukemia = system: SR leukemia
SW-620 colon = system: SW-620 colon
TK-10 renal = system: TK-10 renal
U251 CNS = system: U251 CNS
UACC-257 melanoma = system: UACC-257 melanoma
UACC-62 melanoma = system: UACC-62 melanoma
UO-31 renal = system: UO-31 renal

O=C(CC1(O)C(=O)Nc2c(Cl)cc(Cl)cc21)c1ccc(Br)cc1 (stereo not drawn)
TGI (786-0 renal): 26.4 µM
TGI (A498 renal): > 66 µM
TGI (A549 NSCLC): 44.2 µM
TGI (ACHN renal): 28.8 µM
TGI (CAKI-1 renal): 33 µM
TGI (CCRF-CEM leukemia): > 55 µM
TGI (COLO 205 colon): > 56.1 µM
TGI (DLD-1 colon): 18.9 µM
TGI (DMS 114 small cell lung): > 53.8 µM
TGI (DMS 273 small cell lung): 28.8 µM
TGI (EKVX NSCLC): 29.1 µM
TGI (HCC-2998 colon): > 56.1 µM
TGI (HCT-116 colon): 34.7 µM
TGI (HCT-15 colon): > 56.3 µM
TGI (HL-60(TB) leukemia): 18.6 µM
TGI (HOP-18 NSCLC): 30.4 µM
TGI (HOP-62 NSCLC): 35.7 µM
TGI (HOP-92 NSCLC): 29.7 µM
TGI (HT29 colon): > 57.9 µM
TGI (IGROV1 ovarian): 35.3 µM
TGI (K-562 leukemia): > 72.8 µM
TGI (KM12 colon): 30.6 µM
TGI (KM20L2 colon): 32.9 µM
TGI (LOX IMVI melanoma): > 50.2 µM
TGI (LXFL 529 NSCLC): > 52.4 µM
TGI (M14 melanoma): 31.8 µM
TGI (M19-MEL melanoma): > 20 µM
TGI (MALME-3M melanoma): > 56.1 µM
TGI (MOLT-4 leukemia): > 63.5 µM
TGI (NCI-H226 lung): 29.5 µM
TGI (NCI-H23 lung): 29.3 µM
TGI (NCI-H460 lung): > 56.3 µM
TGI (NCI-H522 lung): 32.4 µM
TGI (OVCAR-3 ovarian): 29.8 µM
TGI (OVCAR-4 ovarian): 25.6 µM
TGI (OVCAR-5 ovarian): 31.4 µM
TGI (OVCAR-8 ovarian): > 52.2 µM
TGI (RPMI-8226 leukemia): 50.6 µM
TGI (RXF 393 renal): 31.1 µM
TGI (RXF-631 renal): 25.4 µM
TGI (SF-268 CNS): 34.4 µM
TGI (SF-295 CNS): > 55.4 µM
TGI (SF-539 CNS): 31.2 µM
TGI (SK-MEL-2 melanoma): > 57.8 µM
TGI (SK-MEL-28 melanoma): 35.1 µM
TGI (SK-MEL-5 melanoma): 31.3 µM
TGI (SK-OV-3 ovarian): 64 µM
TGI (SN12C renal): > 50.4 µM
TGI (SNB-19 CNS): 35.5 µM
TGI (SNB-75 CNS): 39.5 µM
TGI (SNB-78 CNS): 47 µM
TGI (SR leukemia): 62.1 µM
TGI (SW-620 colon): > 53 µM
TGI (TK-10 renal): 32.1 µM
TGI (U251 CNS): 26.9 µM
TGI (UACC-257 melanoma): > 51.3 µM
TGI (UACC-62 melanoma): 23.2 µM
TGI (UO-31 renal): 17.4 µM
